Key:
[1] = MTS viability (toxicity) assay of cells expressing pluripotency markers; format: cell-based, human; parameters: Raw data (duplicate), first replicate / Average: unit not given here; details: human, MTS on day 4, relative to Activin A + Wnt3a positive control, read-out: % Control (percentage viability of control); for viability at 4 days, 2.5 μM: cmpd conc 2.5 μM; for viability at 4 days, 5 μM: cmpd conc 5 μM; for viability at 4 days, 10 μM: cmpd conc 10 μM
In short: (§1)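 Cells expressing pluripotency markers, derived from human embryonic stem cells, were plated at 20,000 cells per well in 96-well clear-bottom plates and cultured overnight. Test compounds were applied in assay medium on days 1 and 2, and compound-free medium on days 3 and 4. On day 4, MTS was added and optical density at 490 nm was read in duplicate.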

[2] = test system: cells expressing pluripotency markers derived from human embryonic stem cells; test: as above; format: cell-based; parameters: Raw data (duplicate), first replicate / Average: unit not given here; details: for viability at 10 µM: Homo sapiens, Embryonic stem cell, viability of cells expressing pluripotency markers, relative to control; for Raw data (duplicate), first replicate / Raw data (duplicate), second replicate: MTS viability assay raw reading; for Raw data (duplicate), first replicate: replicate 1; for Raw data (duplicate), second replicate: replicate 2; for Average: average of duplicate MTS raw readings; for Average of raw data (duplicate), optical density at 490 nm: MTS on day 4
In short: as §1

[3] = test system: Sox17 expression in human embryonic stem cells (H9 line); test: High content screening assay: Sox17 protein expression (differentiation); format: cell-based; details: for fold induction at 10 µM: Homo sapiens, Embryonic stem cell, 10 μM test compound with 100 ng/ml activin A on days 1-2, H9, total intensity by IN Cell Analyzer, strong and moderate hits, read-out: SOX17 Expression, Fold over Wnt 3a/AA control
In short: (§2)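 H9 hESCs on MATRIGEL treated days 1-2 with 10 μM compound in DMEM:F12, 0.5% FCS, 100 ng/ml activin A; days 3-4 with 2% FCS plus activin A without compound. Fixed cells immunostained for Sox17 or HNF-3beta with Draq5 nuclear counterstain. Cell number and staining intensity quantified by high-content imaging, 12 fields/well.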

[4] = test system: HNF-3beta expression in human embryonic stem cells (H9 line); test: High content screening assay: HNF-3beta protein expression (differentiation); format: cell-based; details: for fold induction at 10 µM: Homo sapiens, Embryonic stem cell, 10 μM test compound with 100 ng/ml activin A on days 1-2, H9, total intensity by IN Cell Analyzer, strong and moderate hits, read-out: HNF3β Expression, Fold over Wnt 3a/AA control
In short: as §2

Row | SMILES | viability at 4 days, 2.5 μM [1] | viability at 4 days, 5 μM [1] | viability at 4 days, 10 μM [1] | viability at 10 µM [2] | Raw data (duplicate), first replicate [2] | Raw data (duplicate), second replicate [2] | Average [2] | Average of raw data (duplicate), optical density at 490 nm ([2]; cmpd conc 2.5 μM) | Average of raw data (duplicate), optical density at 490 nm ([2]; cmpd conc 5 μM) | Average of raw data (duplicate), optical density at 490 nm ([2]; cmpd conc 10 μM) | fold induction at 10 µM [3] | SOX-17 Expression Total Intensity [3] | HNF-3b Expression Total Intensity [4] | fold induction at 10 µM [4]
1 | CC(C)(O)CCn1nc(C2=C(c3cn(-c4cccnc4)c4ccccc34)C(=O)NC2=O)c2ccccc21 [Compound 223, 3-[1-(3-Hydroxy-3-methylbutyl)-1H-indazol-3-yl]-4-(1-pyridin-3-yl-1H-indol-3-yl)-1H-pyrrole-2,5-dione] | 99.6% | 93.9% | 83.7% | 97.8% | 0.770 | 0.786 | 0.778 | 0.8427 | 0.8021 | 0.7287 | 1.04 | 1013360000 | 540725000 | 
2 | OCCC#Cc1nc(-c2ccc(F)cc2)c(-c2ccncc2)n1CCCc1ccccc1 [Compound 158, 4-[4-(4-Fluorophenyl)-1-(3-phenylpropyl)-5-pyridin-4-yl-1H-imidazol-2-yl]but-3-yn-1-ol] | 93.2% | 96.2% | 66.5% | 77.7% | 0.629 | 0.659 | 0.644 | 0.7971 | 0.8183 | 0.6052 |  | 324450000 | 269025000 | 
3 | CN(C)c1cccc(-n2cc(C3=C(c4nn(CCO)c5ccccc45)C(=O)NC3=O)c3ccccc32)c1 [Compound 145, 3-{1-[3-(Dimethylamino)phenyl]-1H-indol-3-yl}-4-[1-(2-hydroxyethyl)-1H-indazol-3-yl]-1H-pyrrole-2,5-dione] | 94.5% | 68.4% |  | 105% | 0.831 | 0.822 | 0.826 | 0.7608 | 0.5871 | 0.1277 |  | 238555000 | 82808745 | 
4 | CN(CCO)CCCn1nc(C2=C(c3cn(-c4cccnc4)c4ccccc34)C(=O)NC2=O)c2ccccc21 [Compound 198, 3-(1-{3-[(2-Hydroxyethyl)(methyl)amino]propyl}-1H-indazol-3-yl)-4-(1-pyridin-3-yl-1H-indol-3-yl)-1H-pyrrole-2,5-dione] | 92.5% | 83.8% | 49.7% | 112% | 0.856 | 0.905 | 0.881 | 0.7480 | 0.6893 | 0.4619 |  | 20866647 | 61161468 | 
5 | Cc1c[nH]c(-c2cnc(NCCNc3ccc(C#N)cn3)nc2-c2ccc(Cl)cc2Cl)n1 [Compound 221, 6-[(2-{[4-(2,4-Dichlorophenyl)-5-(4-methyl-1H-imidazol-2-yl)pyrimidin-2-yl]amino}ethyl)amino]pyridine-3-carbonitrile] | 112% | 82.3% | 67.5% | 98.8% |  |  |  | 0.9324 | 0.7191 | 0.6128 | 1.12 | 1089750000 | 1281000000 | 1.16
6 | CN(C)c1ccc(-n2cc(C3=C(c4nn(CCO)c5ccccc45)C(=O)NC3=O)c3cc(Cl)ccc32)cn1 [Compound 148, 3-{5-Chloro-1-[6-(dimethylamino)pyridin-3-yl]-1H-indol-3-yl}-4-[1-(2-hydroxyethyl)-1H-indazol-3-yl]-1H-pyrrole-2,5-dione] | 20.4% | 3.8% | 3.5% | 88.8% | 0.753 | 0.687 | 0.720 | 0.2669 | 0.1559 | 0.1537 | 0.719 | 699160000 | 248855000 | 
7 | O=C1NC(=O)C(c2cn(-c3cccnc3)c3ccccc23)=C1c1cn(CCO)c2ccccc12 [Compound 206, 3-[1-(2-Hydroxyethyl)-1H-indol-3-yl]-4-(1-pyridin-3-yl-1H-indol-3-yl)-1H-pyrrole-2,5-dione] | 93.1% | 90.2% | 7.3% | 110% | 0.845 | 0.877 | 0.861 | 0.7517 | 0.7326 | 0.1793 | 1.74 | 223646667 | 309900000 | 1.66
